Laboratory results published in patent US20250188043A1 (ReproNovo SA, priority 2023, published 2025).
Values after ≈ are worked out from the molar mass of the structure shown.

Legend:
[1] = Dynamic vapor sorption (DVS); assay type: physicochemical
Protocol: Crystalline Form A leflutrozole was determined to be non-hygroscopic.

[2] = Long term storage stability of crystalline Form A leflutrozole; assay type: physicochemical
Protocol: The test for determination of the amount of related substance impurities uses reverse phase HPLC analysis with UV detection (230 nm). The solvents are acetonitrile/water/diammonium hydrogen phosphate buffer/O-phosphirc acid 85%. The column is Macherey Nagel, Nucleosil 100 C18HD (length=150 mm, internal diameter 3.0 mm) or equivalent L1 USP HPLC Columns.
Stability data under accelerated conditions are for up to 6 months at 40° C./75% RH and up to 3 months at 50° C. […].
Packaging A: Double low density polyethylene bags in fiber drugms; water permeation <14.0 mg/day/L. Packaging D: Brown glass bottles type C sealed in triple laminated foil bags or quadruple laminated foil bags of type B; water permeation <0.5 mg/day/L. Packaging H: Double polythene bags, sealed, in 400 mL mini-metallic drugs; water permeation 5 mg/day/L. Packaging J: HDPE bottles from Nalgene (30 mL) with polypropylene screw caps and sealed in alubags of type B. Packaging K: Polyethylene bag containing the drug inside quadruple laminated foil bags; water permeation <0.5 mg/day/L.

[3] = Stability program: degradation product formation and appearance; assay type: physicochemical; settings: for DSC onset after stress / DSC ΔH after stress: Bulk (DSC)
Source text: The mixtures of excipients used for this study are as follows: mixture 1 (maltodextrin, microcrystalline cellulose, sodium carboxymethylcellulose, Aerosil 200, Cutina HR; 64:29:5:0.5:1.5 ratio), mixture 2 (microcrystalline cellulose, spray dried lactose, sodium carboxylmethyl starch, Aerosil 200, magnesium stearate; 20:73.5:5:0.5:1 ratio), and mixture 3 (microcrystalline cellulose, mannitol, crospovidone, magnesium stearate; 15:79.5:4:1.5 ratio). The buffered solutions are aqueous.

[4] = Intrinsic dissolution rate; assay type: physicochemical; settings: for Intrinsic DR value: 37° C., 50 rpm, 720 min
Protocol: The intrinsic dissolution rate is very low for Form A of leflutrozole, even in the presence of sodium dodecyl sulfate (SDS). The rate was determined in 0.1 N hydrochloric acid (HCl) and 0.001 N HCl.

Kinetic solubility = assay type: physicochemical; settings: aqueous buffer, kinetic from dmso stock; room temperature, aqueous solutions between pH 1.0 and pH 6.8
[5] = Dissolution experiments with capsules; assay type: physicochemical; settings: drug substance particle sizes up to D90 ≤35 μm
[6] = Excretion/elimination of 14C-labeled leflutrozole after oral dosing; assay type: in vivo; settings: female rats
P-glycoprotein = P-glycoprotein (Homo sapiens, UniProt P08183); test: P-glycoprotein inhibition; assay type: in vitro ADME; settings: at concentrations above 200 μM
CYP2C9 = target: T1, CYP2C9 (Homo sapiens, UniProt P11712); test: CYP inhibition, pooled human liver microsomes, probe substrates; assay type: in vitro ADME; settings: up to 100 μM
T1 construct: assessed by pooled human liver microsomes using enzyme selective probe substrates; from tissue; host or cells: pooled human liver microsomes

CYP2C19 = target: T2, CYP2C19 (Homo sapiens, UniProt P33261); test: as above; assay type: in vitro ADME; settings: up to 100 μM
T2 construct: assessed by pooled human liver microsomes using enzyme selective probe substrates; from tissue; host or cells: pooled human liver microsomes

CYP2D6 = target: T3, CYP2D6 (Homo sapiens, UniProt P10635); test: as above; assay type: in vitro ADME; settings: up to 100 μM
T3 construct: assessed by pooled human liver microsomes using enzyme selective probe substrates; from tissue; host or cells: pooled human liver microsomes

[7] = Metabolic stability in rat liver microsomes; assay type: in vitro ADME
Pharmacokinetics in rats = assay type: in vivo; settings: for AUC(0-inf) / half-life / AUC(0-t) / Cmax: 1 mg/kg; for AUC(0-t): AUC 0-24^1/48^2 h
[8] = 36 months, 25° C., double polyethylene liner and black polyethylene keg
[9] = more than 36 months at room temperature
[10] = 2% (or 5%) solution or suspension, 1 day, room temperature, HPMC Cellulose 4000 0.5%
[11] = Solid-state, 1 week, 50° C., 75% RH, 1% in mixture 1
[12] = Solid-state, 1 week, 50° C., 75% RH, 1% in mixture 2
[13] = Solid-state, 1 week, 50° C., 75% RH, 1% in mixture 3
[14] = Solid-state, 1 week, 50° C., tight container, 1% in mixture 1
[15] = Solid-state, 1 week, 50° C., tight container, 1% in mixture 2
[16] = Solid-state, 1 week, 50° C., tight container, 1% in mixture 3
[17] = Solid-state, 1 week, 80° C., 75% RH
[18] = Solid-state, 1 week, 80° C., 75% RH, Bulk (HPLC)
[19] = Solid-state, 1 week, 80° C., tight container
[20] = Solid-state, 1 week, 80° C., tight container, Bulk (HPLC)
[21] = Xenon light (approx. 1200 kLuxh)
[22] = Xenon light (approx. 1200 kLuxh), Bulk (HPLC)
[23] = rat, in vivo, iv, 1 mg/kg i.v., PEG200-0.9% Saline-solution 40/60
[24] = rat, in vivo, po, 1 mg/kg p.o., PEG200-water-solution 40/60
[25] = rat, in vivo, po, 1 mg/kg p.o., Suspension 0.5% HPC

Sequence of P-glycoprotein (P08183 whole entry): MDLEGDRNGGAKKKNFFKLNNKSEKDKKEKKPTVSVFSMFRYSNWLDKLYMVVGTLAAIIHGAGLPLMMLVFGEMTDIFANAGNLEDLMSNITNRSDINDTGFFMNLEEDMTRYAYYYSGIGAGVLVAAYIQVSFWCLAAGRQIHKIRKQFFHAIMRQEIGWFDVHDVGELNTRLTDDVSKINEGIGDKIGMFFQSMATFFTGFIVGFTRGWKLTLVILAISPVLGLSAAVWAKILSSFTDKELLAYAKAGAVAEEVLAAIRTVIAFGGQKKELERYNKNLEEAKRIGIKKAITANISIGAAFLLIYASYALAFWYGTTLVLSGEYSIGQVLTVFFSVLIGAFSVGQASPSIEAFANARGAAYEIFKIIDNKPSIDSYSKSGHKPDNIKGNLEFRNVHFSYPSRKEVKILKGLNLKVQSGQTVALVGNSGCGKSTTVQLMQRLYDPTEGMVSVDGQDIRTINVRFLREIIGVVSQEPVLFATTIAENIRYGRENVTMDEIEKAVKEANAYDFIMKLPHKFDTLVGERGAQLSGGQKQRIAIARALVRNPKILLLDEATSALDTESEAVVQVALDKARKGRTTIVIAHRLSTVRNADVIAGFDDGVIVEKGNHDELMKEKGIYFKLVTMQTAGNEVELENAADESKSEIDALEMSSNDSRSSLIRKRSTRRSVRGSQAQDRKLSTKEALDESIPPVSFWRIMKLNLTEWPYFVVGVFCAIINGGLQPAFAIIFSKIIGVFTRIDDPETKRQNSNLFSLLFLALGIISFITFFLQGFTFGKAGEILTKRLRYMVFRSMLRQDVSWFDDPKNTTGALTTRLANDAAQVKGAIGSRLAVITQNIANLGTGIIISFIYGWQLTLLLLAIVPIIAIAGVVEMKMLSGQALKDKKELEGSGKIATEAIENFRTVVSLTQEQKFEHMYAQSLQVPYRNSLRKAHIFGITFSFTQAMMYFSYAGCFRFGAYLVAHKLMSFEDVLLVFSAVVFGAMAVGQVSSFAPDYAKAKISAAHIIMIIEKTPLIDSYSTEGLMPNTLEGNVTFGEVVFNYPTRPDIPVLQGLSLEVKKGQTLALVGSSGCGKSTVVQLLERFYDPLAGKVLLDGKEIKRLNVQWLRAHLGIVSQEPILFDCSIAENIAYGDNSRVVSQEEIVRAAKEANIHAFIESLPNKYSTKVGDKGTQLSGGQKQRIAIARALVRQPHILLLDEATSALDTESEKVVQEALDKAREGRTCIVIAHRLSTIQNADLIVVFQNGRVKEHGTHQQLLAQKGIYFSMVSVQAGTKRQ
T2 sequence (P33261 whole entry): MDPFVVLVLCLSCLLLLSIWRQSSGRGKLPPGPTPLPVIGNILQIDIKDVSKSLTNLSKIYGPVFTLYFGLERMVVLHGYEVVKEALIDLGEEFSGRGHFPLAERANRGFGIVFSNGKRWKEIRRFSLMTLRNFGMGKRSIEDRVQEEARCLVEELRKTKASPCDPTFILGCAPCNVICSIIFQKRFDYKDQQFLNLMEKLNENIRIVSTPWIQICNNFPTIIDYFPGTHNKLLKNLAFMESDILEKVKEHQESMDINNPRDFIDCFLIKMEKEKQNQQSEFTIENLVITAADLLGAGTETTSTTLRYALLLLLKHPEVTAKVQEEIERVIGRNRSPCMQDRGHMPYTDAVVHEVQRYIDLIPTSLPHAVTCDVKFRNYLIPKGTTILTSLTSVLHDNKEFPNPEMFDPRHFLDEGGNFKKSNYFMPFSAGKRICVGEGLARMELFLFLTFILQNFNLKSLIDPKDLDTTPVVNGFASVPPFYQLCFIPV
T3 sequence (P10635 whole entry): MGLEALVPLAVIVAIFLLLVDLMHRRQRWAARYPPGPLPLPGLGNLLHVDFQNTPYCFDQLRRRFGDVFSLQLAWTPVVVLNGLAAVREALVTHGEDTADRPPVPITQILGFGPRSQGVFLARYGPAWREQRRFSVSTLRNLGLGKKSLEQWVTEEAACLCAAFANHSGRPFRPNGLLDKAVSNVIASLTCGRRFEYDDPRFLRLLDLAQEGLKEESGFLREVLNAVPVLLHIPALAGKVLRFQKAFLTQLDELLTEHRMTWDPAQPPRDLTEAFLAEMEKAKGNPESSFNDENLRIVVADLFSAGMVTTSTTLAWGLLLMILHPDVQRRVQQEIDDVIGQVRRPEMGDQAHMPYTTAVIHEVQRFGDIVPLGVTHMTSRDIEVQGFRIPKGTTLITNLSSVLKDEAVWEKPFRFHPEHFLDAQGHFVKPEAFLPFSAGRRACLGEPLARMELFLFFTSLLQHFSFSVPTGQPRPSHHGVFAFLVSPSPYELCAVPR
T1 sequence (P11712 whole entry): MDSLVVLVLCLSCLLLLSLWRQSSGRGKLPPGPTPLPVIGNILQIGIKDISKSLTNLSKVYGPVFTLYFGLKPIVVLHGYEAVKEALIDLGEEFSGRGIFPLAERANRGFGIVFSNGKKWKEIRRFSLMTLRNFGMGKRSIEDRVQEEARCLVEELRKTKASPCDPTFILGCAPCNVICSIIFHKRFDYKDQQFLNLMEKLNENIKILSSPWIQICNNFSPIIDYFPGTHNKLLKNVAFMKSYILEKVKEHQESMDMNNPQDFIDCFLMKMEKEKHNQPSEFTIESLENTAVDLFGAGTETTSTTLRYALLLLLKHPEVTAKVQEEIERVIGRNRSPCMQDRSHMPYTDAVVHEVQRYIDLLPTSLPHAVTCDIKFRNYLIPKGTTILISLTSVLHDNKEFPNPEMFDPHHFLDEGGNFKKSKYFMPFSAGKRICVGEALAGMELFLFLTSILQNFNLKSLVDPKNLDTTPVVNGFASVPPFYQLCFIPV

Compound: N#Cc1ccc(C(F)(c2ccc(C#N)cc2)n2cncn2)cc1 [Form A leflutrozole, 4-[(4-cyanophenyl)-fluoro-(1,2,4-triazol-1-yl)methyl]benzonitrile]
- hygroscopicity [1]: non-hygroscopic
- maximum water uptake (DVS) ([1]; 25° C., up to 95% relative humidity): < 0.2%
- Combined related substance impurities ([2]; 5° C. ± 3° C. in packaging D, Initial): 0.60%
- Combined related substance impurities ([2]; 25° C./60% RH in packaging K, 3 months): 0.60%
- Combined related substance impurities ([2]; 25° C./60% RH in packaging K, Initial): 0.60%
- impurity Q2 (substance of unknown structure) [2, 8]: 0.11 % w/w
- impurity compound of formula (III) [2, 8]: 0.14 % w/w
- Combined related substance impurities ([2]; 40° C./75% RH in packaging A, 3 months): 0.60%
- Combined related substance impurities ([2]; 40° C./75% RH in packaging A, Initial): 0.60%
- Combined related substance impurities ([2]; 40° C./75% RH in packaging D, Initial): 0.60%
- Combined related substance impurities ([2]; 40° C./75% RH in packaging K, 6 months): 0.60%
- Combined related substance impurities ([2]; 40° C./75% RH in packaging K, Initial): 0.60%
- Combined related substance impurities ([2]; 50° C./≤30% RH in packaging D, Initial): 0.60%
- Combined related substance impurities ([2]; 50° C./≤30% RH in packaging K, Initial): 0.60%
- stability of drug substance on storage (in words) ([2]; long term and accelerated storage conditions): very stable under all storage conditions
- individual impurity developed [2, 9]: ≤ 0.8 % HPLC peak area
- total amount of impurities [2, 9]: ≤ 2.0 % of the total HPLC peak area
- time stable at room temperature ([2]; room temperature): more than 36 months
- Combined related substance impurities ([2]; −20° C. ± 5° C./ambient RH in packaging D, Initial): 0.60%
- Combined related substance impurities ([2]; −20° C. ± 5° C./ambient RH in packaging K, Initial): 0.60%
- CL (appearance, color) ([3]; 0.1% solution or suspension, 1 week, 80° C., Ethanol): No change
- CL (appearance, color) ([3]; 0.1% solution or suspension, 1 week, 80° C., Methanol): No change
- CL (appearance, color) ([3]; 0.1% solution or suspension, 1 week, 80° C., Water): No change, suspension formed
- CL (appearance, color) ([3]; 0.1% solution or suspension, 1 week, 80° C., pH 1): No change, suspension formed
- CL (appearance, color) ([3]; 0.1% solution or suspension, 1 week, 80° C., pH 3): No change, suspension formed
- form change on storage ([3]; 1 week at 80° C. and 75% relative humidity): no detectable form change
- CL (appearance, color) ([3]; 2% (or 5%) solution or suspension, 1 day, room temperature, 0.5% CMC): suspension formed
- CL (appearance, color) [3, 10]: suspension formed
- DP (degradation product) [3, 10]: 0.0%
- CL (appearance, color) [3, 11]: No change
- DP (degradation product) [3, 11]: 0.5%
- CL (appearance, color) [3, 12]: No change
- DP (degradation product) [3, 12]: 0.1%
- CL (appearance, color) [3, 13]: No change
- DP (degradation product) [3, 13]: 0.4%
- CL (appearance, color) [3, 14]: No change
- DP (degradation product) [3, 14]: 0.0%
- CL (appearance, color) [3, 15]: No change
- DP (degradation product) [3, 15]: 0.0%
- CL (appearance, color) [3, 16]: No change
- DP (degradation product) [3, 16]: 0.1%
- DSC onset after stress [3, 17]: 168 °C onset;
- DSC ΔH after stress [3, 17]: ΔH = 110.3 J/g
- CL (appearance, color) [3, 18]: No change
- DP (degradation product) [3, 18]: 0.0%
- DSC onset after stress [3, 19]: 168 °C onset;
- DSC ΔH after stress [3, 19]: ΔH = 114 J/g
- CL (appearance, color) [3, 20]: No change
- DP (degradation product) [3, 20]: 0.0%
- DSC onset after stress [3, 21]: 169 °C onset;
- DSC ΔH after stress [3, 21]: ΔH = 112.6 J/g
- CL (appearance, color) [3, 22]: No change
- DP (degradation product) [3, 22]: 0.0%
- degradation on exposure to xenon lamp (in words) ([3]; xenon lamp): does not degrade
- Intrinsic DR value ([4]; HCl 0.001N + 1% SDS): 0.0167 mg/min/cm^2
- Intrinsic DR value ([4]; HCl 0.1N + 1% SDS): 0.0162 mg/min/cm^2
- intrinsic dissolution rate (in words) ([4]; even in the presence of sodium dodecyl sulfate): very low
- solubility kinetic (Kinetic solubility): ~0.0607 µg/mL (≈ 0.2 µM)

Compound: N#Cc1ccc(C(F)(c2ccc(C#N)cc2)n2cncn2)cc1 [leflutrozole, 4-[(4-cyanophenyl)-fluoro-(1,2,4-triazol-1-yl)methyl]benzonitrile]
- impurities formed ([3]; mixtures of 1% leflutrozole with various excipients, 1 week, 50° C. and 75% relative humidity): at most 0.5%
- influence of particle size on dissolution of capsules [5]: no relevant influence on dissolution
- predominant mechanism of elimination [6]: metabolism
- unchanged leflutrozole excreted via urine ([6]; oral dosing): 9%
- half-life ([6]; rat, plasma, oral): 78 h
- inhibition of P-glycoprotein (P-glycoprotein): not determined to be an inhibitor
- IC50 (CYP2C9): > 50 µM
- IC50 (CYP2C19): > 50 µM
- IC50 (CYP2D6): > 50 µM
- CLint scaled [7]: < 4.6 mL/min/kg
- half-life [7]: > 5 h
- BAV 0-inf (Pharmacokinetics in rats; 1 mg/kg p.o., Suspension 0.5% HPC): ≥100%
- clearance (Pharmacokinetics in rats; [23]): 0.383 mL/min
- AUC(0-inf) (Pharmacokinetics in rats; [23]): 123 µM·h
- half-life (Pharmacokinetics in rats; rat, in vivo, iv, 1 mg/kg i.v., PEG200-0.9% Saline-solution 40/60, read-out: T1/2 (converted)): 33.1 h
- AUC(0-t) (Pharmacokinetics in rats; [23]): 79.4 µM·h
- AUC(0-inf) (Pharmacokinetics in rats; [24]): 143 µM·h
- Cmax (Pharmacokinetics in rats; [24]): 1750 nM
- half-life (Pharmacokinetics in rats; rat, in vivo, po, 1 mg/kg p.o., PEG200-water-solution 40/60, read-out: T1/2 (converted)): 49.7 h
- AUC(0-inf) (Pharmacokinetics in rats; [25]): 245 µM·h
- Cmax (Pharmacokinetics in rats; [25]): 1810 nM
- half-life (Pharmacokinetics in rats; rat, in vivo, po, 1 mg/kg p.o., Suspension 0.5% HPC, read-out: T1/2 (converted)): 101 h
- AUC(0-t) (Pharmacokinetics in rats; [24]): 70.2 µM·h
- AUC(0-t) (Pharmacokinetics in rats; [25]): 163 µM·h
- half-life (Pharmacokinetics in rats; rat, in vivo, po, read-out: half-life (converted)): 101 h
